Measurements: PubChem BioAssay (NCI)
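Dose response: 5 concentrations. Exposure: 48 h. Format: 96-well plates. Endpoint: linear interpolation; highest concentration if not reached. TGI: total growth inhibition.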

Experiments:
Test in all cases: NCI-60 cell line screen, 48 h
SK-MEL-2 melanoma = system: SK-MEL-2 melanoma
SK-OV-3 ovarian = system: SK-OV-3 ovarian
SNB-19 CNS = system: SNB-19 CNS
OVCAR-4 ovarian = system: OVCAR-4 ovarian
ACHN renal = system: ACHN renal
BT-549 breast = system: BT-549 breast
HCC-2998 colon = system: HCC-2998 colon
TK-10 renal = system: TK-10 renal
T-47D breast = system: T-47D breast
OVCAR-8 ovarian = system: OVCAR-8 ovarian
IGROV1 ovarian = system: IGROV1 ovarian
PC-3 prostate = system: PC-3 prostate
RPMI-8226 leukemia = system: RPMI-8226 leukemia
HCT-116 colon = system: HCT-116 colon
HCT-15 colon = system: HCT-15 colon
HT29 colon = system: HT29 colon
MCF7 breast = system: MCF7 breast
HS 578T breast = system: HS 578T breast
M14 melanoma = system: M14 melanoma
MDA-MB-231 breast = system: MDA-MB-231 breast
SF-539 CNS = system: SF-539 CNS
NCI-H460 lung = system: NCI-H460 lung
SF-295 CNS = system: SF-295 CNS
HL-60(TB) leukemia = system: HL-60(TB) leukemia
MDA-MB-435 = system: MDA-MB-435
U251 CNS = system: U251 CNS
OVCAR-3 ovarian = system: OVCAR-3 ovarian
SK-MEL-28 melanoma = system: SK-MEL-28 melanoma
SW-620 colon = system: SW-620 colon
MDA-N = system: MDA-N
786-0 renal = system: 786-0 renal
MOLT-4 leukemia = system: MOLT-4 leukemia
LOX IMVI melanoma = system: LOX IMVI melanoma
NCI/ADR-RES ovarian = system: NCI/ADR-RES ovarian
A549 NSCLC = system: A549 NSCLC
SF-268 CNS = system: SF-268 CNS
NCI-H23 lung = system: NCI-H23 lung
MALME-3M melanoma = system: MALME-3M melanoma
DU-145 prostate = system: DU-145 prostate
SK-MEL-5 melanoma = system: SK-MEL-5 melanoma
COLO 205 colon = system: COLO 205 colon
EKVX NSCLC = system: EKVX NSCLC
CCRF-CEM leukemia = system: CCRF-CEM leukemia
KM12 colon = system: KM12 colon
SN12C renal = system: SN12C renal
A498 renal = system: A498 renal
OVCAR-5 ovarian = system: OVCAR-5 ovarian
CAKI-1 renal = system: CAKI-1 renal
UACC-62 melanoma = system: UACC-62 melanoma
HOP-92 NSCLC = system: HOP-92 NSCLC
NCI-H522 lung = system: NCI-H522 lung
HOP-62 NSCLC = system: HOP-62 NSCLC
RXF 393 renal = system: RXF 393 renal
UACC-257 melanoma = system: UACC-257 melanoma
SNB-75 CNS = system: SNB-75 CNS
UO-31 renal = system: UO-31 renal
NCI-H226 lung = system: NCI-H226 lung
K-562 leukemia = system: K-562 leukemia

CCOC(=O)c1c(N)nn2c1cc1cccccc12
TGI (SK-MEL-2 melanoma): 45.1 µM
TGI (SK-OV-3 ovarian): > 100 µM
TGI (SNB-19 CNS): > 100 µM
TGI (OVCAR-4 ovarian): > 100 µM
TGI (ACHN renal): > 100 µM
TGI (BT-549 breast): 65.2 µM
TGI (HCC-2998 colon): > 100 µM
TGI (TK-10 renal): 74.6 µM
TGI (T-47D breast): 64.4 µM
TGI (OVCAR-8 ovarian): 73.1 µM
TGI (IGROV1 ovarian): 94.8 µM
TGI (PC-3 prostate): 53.7 µM
TGI (RPMI-8226 leukemia): 45.7 µM
TGI (HCT-116 colon): > 100 µM
TGI (HCT-15 colon): > 100 µM
TGI (HT29 colon): > 100 µM
TGI (MCF7 breast): > 100 µM
TGI (HS 578T breast): 82.8 µM
TGI (M14 melanoma): > 100 µM
TGI (MDA-MB-231 breast): > 100 µM
TGI (SF-539 CNS): > 100 µM
TGI (NCI-H460 lung): 58.6 µM
TGI (SF-295 CNS): 86.7 µM
TGI (HL-60(TB) leukemia): > 100 µM
TGI (MDA-MB-435): > 100 µM
TGI (U251 CNS): 69.6 µM
TGI (OVCAR-3 ovarian): > 100 µM
TGI (SK-MEL-28 melanoma): 83.3 µM
TGI (SW-620 colon): > 100 µM
TGI (MDA-N): > 100 µM
TGI (786-0 renal): > 100 µM
TGI (MOLT-4 leukemia): > 100 µM
TGI (LOX IMVI melanoma): 72.9 µM
TGI (NCI/ADR-RES ovarian): 57.7 µM
TGI (A549 NSCLC): > 100 µM
TGI (SF-268 CNS): 68.2 µM
TGI (NCI-H23 lung): 69 µM
TGI (MALME-3M melanoma): 67.3 µM
TGI (DU-145 prostate): > 100 µM
TGI (SK-MEL-5 melanoma): 69 µM
TGI (COLO 205 colon): 78.4 µM
TGI (EKVX NSCLC): > 100 µM
TGI (CCRF-CEM leukemia): > 100 µM
TGI (KM12 colon): 54.6 µM
TGI (SN12C renal): > 100 µM
TGI (A498 renal): 84.9 µM
TGI (OVCAR-5 ovarian): > 100 µM
TGI (CAKI-1 renal): > 100 µM
TGI (UACC-62 melanoma): 50.8 µM
TGI (HOP-92 NSCLC): 95.8 µM
TGI (NCI-H522 lung): 46.7 µM
TGI (HOP-62 NSCLC): > 100 µM
TGI (RXF 393 renal): > 100 µM
TGI (UACC-257 melanoma): 71.5 µM

Cc1ccc(CC(=O)Nc2ccc(NC(=O)/C=C/NC(=O)/C=C/c3ccc(-c4ccccc4)cc3)cc2C(=O)c2ccccc2)cc1
TGI (SK-MEL-2 melanoma): 5.79 µM
TGI (SK-OV-3 ovarian): 4.36 µM
TGI (SNB-19 CNS): 16 µM
TGI (OVCAR-4 ovarian): 3.41 µM
TGI (ACHN renal): 10.9 µM
TGI (BT-549 breast): 3.11 µM
TGI (HCC-2998 colon): 1.61 µM
TGI (SNB-75 CNS): 6.59 µM
TGI (TK-10 renal): 8.72 µM
TGI (T-47D breast): 18 µM
TGI (OVCAR-8 ovarian): 2.21 µM
TGI (IGROV1 ovarian): 2.16 µM
TGI (PC-3 prostate): 3.48 µM
TGI (RPMI-8226 leukemia): 14.7 µM
TGI (HCT-116 colon): 2.96 µM
TGI (UO-31 renal): 13.7 µM
TGI (HCT-15 colon): 9.53 µM
TGI (HT29 colon): 20.3 µM
TGI (MCF7 breast): 4.92 µM
TGI (HS 578T breast): 3.74 µM
TGI (M14 melanoma): 7.3 µM
TGI (NCI-H226 lung): 6.15 µM
TGI (MDA-MB-231 breast): 5.65 µM
TGI (SF-539 CNS): 3.67 µM
TGI (NCI-H460 lung): 4.6 µM
TGI (SF-295 CNS): 3.05 µM
TGI (HL-60(TB) leukemia): 54.4 µM
TGI (MDA-MB-435): 10.8 µM
TGI (U251 CNS): 4.35 µM
TGI (OVCAR-3 ovarian): 4.32 µM
TGI (SK-MEL-28 melanoma): 9 µM
TGI (SW-620 colon): 3.44 µM
TGI (MDA-N): 6.61 µM
TGI (786-0 renal): 3.34 µM
TGI (MOLT-4 leukemia): 9.16 µM
TGI (LOX IMVI melanoma): 4.84 µM
TGI (NCI/ADR-RES ovarian): > 100 µM
TGI (A549 NSCLC): 4.32 µM
TGI (SF-268 CNS): 9.46 µM
TGI (NCI-H23 lung): 4.2 µM
TGI (MALME-3M melanoma): 11.5 µM
TGI (DU-145 prostate): > 100 µM
TGI (SK-MEL-5 melanoma): 5.14 µM
TGI (COLO 205 colon): 4.53 µM
TGI (EKVX NSCLC): 3.58 µM
TGI (CCRF-CEM leukemia): 8.84 µM
TGI (KM12 colon): 14.6 µM
TGI (SN12C renal): 5.51 µM
TGI (A498 renal): 5.31 µM
TGI (OVCAR-5 ovarian): 5.77 µM
TGI (CAKI-1 renal): 11.3 µM
TGI (UACC-62 melanoma): 4.87 µM
TGI (K-562 leukemia): > 100 µM
TGI (HOP-62 NSCLC): 4.15 µM
TGI (RXF 393 renal): 3.52 µM
TGI (UACC-257 melanoma): 4.71 µM
